# Measurements published in patent US20140106967A1, “AUXIN PLANT GROWTH REGULATORS” (The Governors of The University of Alberta, priority 2011, published 2014).
# What was measured:
# [1] = test system: Pisum sativum L. cv. Carneval; test: Growth chamber pea study: one 4-ME-IAA spray, heat-stressed and non-stressed plants (Tables 1, 2); assay type: in vivo; design: more pods per plant with mature seeds than control / increase in number of seeds per plant vs control / increase in total seed weight per plant vs control: tested at 1 µM
# Source text: ‘Carneval’ (Pisum sativum L.) was chosen as a model cultivar as a semi-dwarf (semi-leafless; an field pea which is used extensively in crop agriculture. ‘Carneval’ has white flowers and yellow cotyledons at maturity, begins to flower at about the 15 to 17th node under long day conditions. Seeds of ‘Carneval’ were planted at an approximate depth of 2.5 cm in 3-L plastic pots (4 seeds per pot and thinned to 2 plants per pot after approximately 2 weeks) in 1:1 Sunshine #4 potting mix (Sun Gro Horticulture, Vancouver, Canada) and sand. Approximately 15 cc of slow-release fertilizer (14-14-14) was added to the potting mix at planting. The experiment was arranged in a completely randomized design and grown at the University of Alberta in a growth chamber set at 19° C./17° C. (day/night) with a 16/8-h photoperiod under cool-white fluorescent lights (F54/15/835/HO high fluorescent bulbs, Phillips, Holland; 350 μE m^2 s^−2, measured with a LI-188 photometer, Li-Cor Biosciences, Lincoln, Nebr.). For the heat stress treatment, plants were placed in a separate growth chamber with a 16/8-h photoperiod under cool-white fluorescent lights (F54/15/835/HO high fluorescent bulbs, Phillips, Holland) for 4 days where the temperature was cycled over a 24 hr period as follows: 34° C. air temperature for 6 hours per day (between 11:00 and 17:00 hrs) for 4 days during the light cycle; the remainder of the light cycle was maintained at a 22° C. air temperature; the dark cycle was maintained at 19° C. After the 4 day heat treatment, the plants were returned to the same growth chamber they were originally grown in, where they were taken to maturity. One application of 4-ME-IAA (1 μM in 0.1% Tween 80) or 0.1% Tween 80 (control) was applied as a spray to the entire plant to cover when the first flowering node of the main stem was at the flower bud or full bloom stage. For the heat stress treatment, the hormone or control application was completed 16 hrs prior to the initiation of the first heat-stress cycle.
# [2] = test system: pea pericarp; test: Split-pericarp assay: growth of deseeded pea pericarps attached to the plant; assay type: in vivo, Pisum sativum
# Source text: In addition to GAs, developing pea seeds and pericarps contain two auxins, 4-chloroindole-3-acetic acid (4-Cl-IAA) and indole-3-acetic acid (IAA) (Magnus et al. 1997). A split-pericarp assay where test compounds are applied to the inner wall of split and deseeded pericarps that are still attached to the plant has been developed to examine the effects of exogenously applied growth substances on pericarp growth.
# During early pea fruit growth, the physiological roles of 4-chloroindole-3-acetic acid (4-Cl-IAA) and IAA, both natural pea auxins, in regulating gibberellin (GA) 20-oxidase gene expression (PsGA20ox1) were tested with 4-position, ring-substituted auxins that have a range of biological activities (fruit growth). The effect of seeds, and natural and synthetic auxins (4-Cl-IAA, and IAA; 4-Me-IAA, 4-Et-IAA and 4-F-IAA, respectively), and auxin concentration (4-Cl-IAA) on PsGA20ox1 mRNA levels in pea pericarp were investigated over a 24 h treatment period. The ability of certain 4-substituted auxins to increase PsGA20ox1 mRNA levels in deseeded pericarp was correlated with their ability to stimulate pericarp growth.
# [3] = 1 μM, non-heat stressed, at plant maturity
# [4] = non-stressed, at plant maturity
smiles,measurement,setting,value
"Cc1cccc2[nH]cc(CC(=O)O)c12 [4-ME-IAA, 4-methyl-indole-3-acetic acid]","plant maturation (dry-down), FIG. 3","[1]; 1 μM in 0.1% Tween 80, 34 days after spray",stimulated maturation of the plant
same,Number of pods per plant,[1]; [3],14.9 ± 0.6
same,Number of seeds per plant,[1]; [3],57.6 ± 3.5
same,Number of stems/stems with pods per plant,[1]; [3],1.1 ± 0.1
same,Total seed weight per plant,[1]; [3],13.56 ± 0.64 g
same,Weight per seed,[1]; [3],0.24 ± 0.01 g
same,Number of pods with developing seeds per plant,"[1]; Heat-stressed (34° C. 6 h/day, 4 days), 1 μM in 0.1% Tween 80, 16 hr before heat, 9 to 10 days after removal from heat treatment",10.6 ± 0.8
same,Number of pods with developing seeds per plant,"[1]; Non-stressed (19° C./17° C.), 1 μM in 0.1% Tween 80, 9 to 10 days",15.4 ± 0.6
same,increase in pod retention vs control,"[1]; heat-stress conditions, 9-10 days after application",112%
same,"pod retention, FIG. 2","[1]; non-stressed and heat-stress conditions, 9-10 days after application",increased pod retention
same,increase in pod retention vs control,"[1]; non-stressed conditions, 9-10 days after application",41%
same,Weight per seed,[1]; [4],240 mg per seed
same,increase in number of seeds per plant vs control,[1]; [4],39%
same,increase in total seed weight per plant vs control,[1]; [4],23%
same,more pods per plant with mature seeds than control,[1]; [4],42%
same,pericarp growth (biological activity),[2],second most biologically active auxin
